Assay results published in patent publication US20260232625A1, “NOVEL DECURSIN DERIVATIVE AND USE THEREOF FOR PREVENTING OR TREATING NON-SMALL CELL LUNG CANCER” (JAEIN R&P INC., priority 2023, published 2026).

These compounds were tested on A549 (assay: MTT cytotoxicity evaluation against A549 cells). Conditions: Homo sapiens, A549, 48 h, Method 1: 12.5-200 μM, 48 hours.
Type: cell-based, human
Description: A549 (human lung cancer cells) were obtained from the American Type Culture Collection (ATCC) and used. The cells were cultured in a medium containing 10% FBS, 1% penicillin (10,000 units/mL), and streptomycin (10 mg/mL), or in Dulbecco's Modified Eagle's Medium (DMEM), at 37° C. under 5% CO2 conditions.
To measure cytotoxicity, an MTT assay was used. Specifically, A549 cells cultured according to Experimental Example 1 were seeded into a 96-well plate at a density of 2.5×10^4 cells/mL in 100 μL, and incubated for 24 hours. Thereafter, the cells were treated with either the compounds prepared according to Examples 1 to 27 or, as comparative agents, decursin or docetaxel. The prepared compounds and decursin were each administered to the A549 cell line at concentrations of 0 μM (untreated), 12.5 μM, 25 μM, 50 μM, 100 μM, and 200 μM, while docetaxel was administered at concentrations of 0 nM (untreated), 0.1 nM, 1 nM, 10 nM, 100 nM, and 1,000 nM, followed by incubation for an additional 48 hours. Then, 20 μL of MTT solution was added (Method 1). Alternatively, the compounds prepared according to Examples 28 to 30, the compound of Example 5 as a reference compound or, as comparative agents, decursin or docetaxel, were used. The prepared compounds, the compound of Example 5, and decursin were each administered at concentrations of 0 μM (untreated), 3.125 μM, 6.25 μM, 12.5 μM, 25 μM, and 50 μM, while docetaxel was administered at concentrations of 0 nM (untreated), 0.6 nM, 1.25 nM, 2.5 nM, 5 nM, and 10 nM, and treated in the same manner as described in Method 1 (Method 2). The cells treated with MTT solution were incubated for 2 hours, the medium was removed, and the formazan blue crystals formed by the cells were treated with an MTT lysis buffer, followed by incubation in a cell incubator for 24 hours. The MTT lysis buffer was prepared by mixing N,N-dimethylformamide with water in a 1:1 ratio to give a solution containing 20% SIDS (sodium dodecyl sulfate) at the final concentration. The optical density at 590 nm was measured using a microplate reader (FIGS. 1a to 1d). Based on the measured values, the cytotoxicity (IC50) against A549 was calculated, and the results are disclosed in Table 1 together with the structural formulae.

Structure (SMILES)	IC50 [µM]
CC1(C)Oc2cc3oc(=O)ccc3cc2[C@@H](NC(=O)/C=C/c2ccc(C(F)(F)F)cc2)[C@@H]1O [Example 27, (E)-N-((3S,4R)-3-hydroxy-2,2-dimethyl-8-oxo-2,3,4,8-tetrahydropyrano[3,2-g]chromen-4-yl)-3-(4-(trifluoromethyl)phenyl)acrylamide]	73.4
CC1(C)Oc2cc3oc(=O)ccc3cc2C[C@H]1OC(=O)CCn1ccnc1 [Example 10, (R)-2,2-dimethyl-8-oxo-2,3,4,8-tetrahydropyrano[3,2-g]chromen-3-yl 3-(1H-imidazol-1-yl)propanoate]	> 200
CC(C)=CC(=O)O[C@H]1Cc2cc3ccc(=O)oc3cc2OC1(C)C [Decursin, decursin]	43.6
CC1(C)Oc2cc3oc(=O)ccc3cc2[C@@H](NC(=O)/C=C/c2ccoc2)[C@@H]1O [Example 23, (E)-3-(furan-3-yl)-N-((3S,4R)-3-hydroxy-2,2-dimethyl-8-oxo-2,3,4,8-tetrahydropyrano[3,2-g]chromen-4-yl)acrylamide]	> 200
CC1(C)Oc2cc3oc(=O)ccc3cc2C[C@H]1OC(=O)CCc1ccccn1 [Example 11, (R)-2,2-dimethyl-8-oxo-2,3,4,8-tetrahydropyrano[3,2-g]chromen-3-yl 3-(pyridin-2-yl)propanoate]	> 200
C/C(=C\c1ccccc1)C(=O)O[C@@H]1Cc2cc3ccc(=O)oc3cc2OC1(C)C [Example 13, (R,E)-2,2-dimethyl-8-oxo-2,3,4,8-tetrahydropyrano[3,2-g]chromen-3-yl 2-methyl-3-phenylacrylate]	108
CC1(C)Oc2cc3oc(=O)ccc3cc2[C@@H](NC(=O)/C=C/c2ccccn2)[C@@H]1O [Example 21, (E)-N-((3S,4R)-3-hydroxy-2,2-dimethyl-8-oxo-2,3,4,8-tetrahydropyrano[3,2-g]chromen-4-yl)-3-(pyridin-2-yl)acrylamide]	> 200
C/C(=C\c1ccccc1)C(=O)O[C@H]1Cc2cc3ccc(=O)oc3cc2OC1(C)C [Example 4, (S,E)-2,2-dimethyl-8-oxo-2,3,4,8-tetrahydropyrano[3,2-g]chromen-3-yl 2-methyl-3-phenylacrylate]	80.7
CC1(C)Oc2cc3oc(=O)ccc3cc2C[C@@H]1OC(=O)/C=C/c1ccc(C(F)(F)F)cc1 [Example 9, (S,E)-2,2-dimethyl-8-oxo-2,3,4,8-tetrahydropyrano[3,2-g]chromen-3-yl 3-(4-(trifluoromethyl)phenyl)acrylate]	> 200
C/C(=C\c1ccccc1)C(=O)N[C@@H]1c2cc3ccc(=O)oc3cc2OC(C)(C)[C@H]1O [Example 22, (E)-N-((3S,4R)-3-hydroxy-2,2-dimethyl-8-oxo-2,3,4,8-tetrahydropyrano[3,2-g]chromen-4-yl)-2-methyl-3-phenylacrylamide]	> 200
CN(C)S(=O)(=O)c1ccc(/C=C/C(=O)O[C@@H]2Cc3cc4ccc(=O)oc4cc3OC2(C)C)cc1 [Example 17, (R,E)-2,2-dimethyl-8-oxo-2,3,4,8-tetrahydropyrano[3,2-g]chromen-3-yl 3-(4-(N,N-dimethylsulfamoyl)phenyl)acrylate]	> 200
CC1(C)Oc2cc3oc(=O)ccc3cc2[C@@H](NC(=O)CCn2ccnc2)[C@@H]1O [Example 19, N-((3S,4R)-3-hydroxy-2,2-dimethyl-8-oxo-2,3,4,8-tetrahydropyrano[3,2-g]chromen-4-yl)-3-(1H-imidazol-1-yl)propanamide]	> 200
CC1(C)Oc2cc3oc(=O)ccc3cc2[C@@H](NC(=O)/C=C/c2ccc3c(c2)OCO3)[C@@H]1O [Example 25, (E)-3-(benzo[d][1,3]dioxol-5-yl)-N-((3S,4R)-3-hydroxy-2,2-dimethyl-8-oxo-2,3,4,8-tetrahydropyrano[3,2-g]chromen-4-yl)acrylamide]	151
CC1(C)Oc2cc3oc(=O)ccc3cc2C[C@H]1OC(=O)CCc1ccc2c(c1)OCO2 [Example 15, (R)-2,2-dimethyl-8-oxo-2,3,4,8-tetrahydropyrano[3,2-g]chromen-3-yl 3-(benzo[d][1,3]dioxol-5-yl)propanoate]	> 200
CC1(C)Oc2cc3oc(=O)ccc3cc2[C@@H](NC(=O)CCc2ccc3c(c2)OCO3)[C@@H]1O [Example 24, 3-(benzo[d][1,3]dioxol-5-yl)-N-((3S,4R)-3-hydroxy-2,2-dimethyl-8-oxo-2,3,4,8-tetrahydropyrano[3,2-g]chromen-4-yl)propanamide]	> 200
CC1(C)Oc2cc3oc(=O)ccc3cc2C[C@H]1OC(=O)/C=C/c1ccccn1 [Example 12, (R,E)-2,2-dimethyl-8-oxo-2,3,4,8-tetrahydropyrano[3,2-g]chromen-3-yl 3-(pyridin-2-yl)acrylate]	184
CC1(C)Oc2cc3oc(=O)ccc3cc2C[C@H]1OC(=O)/C=C/c1ccc(C(F)(F)F)cc1 [Example 18, (R,E)-2,2-dimethyl-8-oxo-2,3,4,8-tetrahydropyrano[3,2-g]chromen-3-yl 3-(4-(trifluoromethyl)phenyl)acrylate]	172
CC1(C)Oc2cc3oc(=O)ccc3cc2C[C@H]1OC(=O)/C=C/c1ccoc1 [Example 14, (R,E)-2,2-dimethyl-8-oxo-2,3,4,8-tetrahydropyrano[3,2-g]chromen-3-yl 3-(furan-3-yl)acrylate]	152
CC1(C)Oc2cc3oc(=O)ccc3cc2C[C@@H]1OC(=O)/C=C/c1ccccn1 [Example 3, (S,E)-2,2-dimethyl-8-oxo-2,3,4,8-tetrahydropyrano[3,2-g]chromen-3-yl 3-(pyridin-2-yl)acrylate]	113
CC1(C)Oc2cc3oc(=O)ccc3cc2C[C@@H]1OC(=O)CCc1ccccn1 [Example 2, (S)-2,2-dimethyl-8-oxo-2,3,4,8-tetrahydropyrano[3,2-g]chromen-3-yl 3-(pyridin-2-yl)propanoate]	> 200
CC1(C)Oc2cc3oc(=O)ccc3cc2C[C@@H]1OC(=O)/C=C/c1ccc2c(c1)OCO2 [Example 7, (S,E)-2,2-dimethyl-8-oxo-2,3,4,8-tetrahydropyrano[3,2-g]chromen-3-yl 3-(benzo[d][1,3]dioxol-5-yl)acrylate]	> 200
CC1(C)Oc2cc3oc(=O)ccc3cc2C[C@@H]1OC(=O)CCc1ccc2c(c1)OCO2 [Example 6, (S)-2,2-dimethyl-8-oxo-2,3,4,8-tetrahydropyrano[3,2-g]chromen-3-yl 3-(benzo[d][1,3]dioxol-5-yl)propanoate]	≥ 219
CN(C)S(=O)(=O)c1ccc(/C=C/C(=O)O[C@H]2Cc3cc4ccc(=O)oc4cc3OC2(C)C)cc1 [Example 8, (S,E)-2,2-dimethyl-8-oxo-2,3,4,8-tetrahydropyrano[3,2-g]chromen-3-yl 3-(4-(N,N-dimethylsulfamoyl)phenyl)acrylate]	> 200
CC1(C)Oc2cc3oc(=O)ccc3cc2C[C@@H]1OC(=O)CCn1ccnc1 [Example 1, (S)-2,2-dimethyl-8-oxo-2,3,4,8-tetrahydropyrano[3,2-g]chromen-3-yl 3-(1H-imidazol-1-yl)propanoate]	> 200
CC1(C)Oc2cc3oc(=O)ccc3cc2[C@@H](NC(=O)CCc2ccccn2)[C@@H]1O [Example 20, N-((3S,4R)-3-hydroxy-2,2-dimethyl-8-oxo-2,3,4,8-tetrahydropyrano[3,2-g]chromen-4-yl)-3-(pyridin-2-yl)propanamide]	> 200
CN(C)S(=O)(=O)c1ccc(/C=C/C(=O)N[C@@H]2c3cc4ccc(=O)oc4cc3OC(C)(C)[C@H]2O)cc1 [Example 26, (E)-3-(4-(N,N-dimethylsulfamoyl)phenyl)-N-((3S,4R)-3-hydroxy-2,2-dimethyl-8-oxo-2,3,4,8-tetrahydropyrano[3,2-g]chromen-4-yl)acrylamide]	> 200

Same assay, conditions: Homo sapiens, A549, 48 h, Method 2 (marked *): 3.125-50 μM, 48 hours

Structure (SMILES)	IC50 [µM]
CC(C)=CC(=O)O[C@H]1Cc2cc3ccc(=O)oc3cc2OC1(C)C [Decursin, decursin]	30.4
CN(C)c1ccc(/C=C/C(=O)O[C@H]2Cc3cc4ccc(=O)oc4cc3OC2(C)C)cc1 [Example 30, (S,E)-2,2-dimethyl-8-oxo-2,3,4,8-tetrahydropyrano[3,2-g]chromen-3-yl 3-(4-(dimethylamino)phenyl)acrylate]	151
CC1(C)Oc2cc3oc(=O)ccc3cc2C[C@@H]1OC(=O)CCc1ccoc1 [Example 28, (S)-2,2-dimethyl-8-oxo-2,3,4,8-tetrahydropyrano[3,2-g]chromen-3-yl 3-(furan-3-yl)propanoate]	96.1
CN(C)c1ccc(CC(=O)O[C@H]2Cc3cc4ccc(=O)oc4cc3OC2(C)C)cc1 [Example 29, (S)-2,2-dimethyl-8-oxo-2,3,4,8-tetrahydropyrano[3,2-g]chromen-3-yl 4-(dimethylamino)phenylacetate]	52.4
